Assay [1] concerns HPASMCs. The assay is described as follows: Cell proliferation by Ki67 staining in HPASMCs. It is filed as cell-based, human. The conditions noted are these: pifithrin 10 μM. The text has this: (§1) Tissue sections and cells were stained with primary antibody against Ki67 (Dako Inc.), FGF12 (Abcam), phospho-p53 (p-p53; Cell Signaling Technology), α-smooth muscle actin (α-SMA; Sigma), or SM22α (Abcam) and proper fluorescence-labeled secondary antibody. Nuclei were stained with 4′,6-diamidino-2-phenylindole (DAPI). The stained cells were observed using a fluorescence microscope (Nikon). All images shown are representative of independent three experiments.
(§2) For cell proliferation analysis, cells were inoculated triplicate in a 24-well plate, and cultured in the basal medium supplemented with 50 ng/ml platelet-derived growth factor-BB (PDGF-BB; R&D systems), 100 ng/ml Bone morphogenic protein-4 (BMP-4; R&D systems), or 10% FBS. Cell proliferation was determined by an MTS assay (MTS assay; Promega) or immunofluorescence assay using anti-Ki67 IgG (Dako). Five representative color images were randomly acquired from each sample for quantifying Ki67 stained cells (Ki67+ cells), and the percentage of Ki67+ cells was determined through dividing the mean value of Ki67+ cells by the total number of cells on each image.

The test system of assay [2] is HASMCs. Nature of the assay: Cell proliferation by Ki67 staining in HASMCs. It is filed as cell-based, human. The conditions noted are these: pifithrin 10 μM.
Excerpt: as §1, §2

Assay [3] deals with human aortic smooth muscle cells (HASMCs). Nature of the assay: FGF12 expression regulation by PDGF-BB in HASMCs (RT-PCR, immunofluorescence). It is filed as cell-based.
Excerpt: as §1
(§3) Total RNA of cells or tissues for reverse transcription-polymerase chain reaction (RT-PCR) was isolated with TRIzol reagent (Invitrogen). Next, cDNA was synthesized from total RNA using primers specific to corresponding genes and a Superscript first-strand synthesis kit (Invitrogen), and was amplified by PCR (30-35 cycles). Glyceraldehyde-3-phosphate dehydrogenase (GAPDH) was used as a loading control. Real-time PCR was performed using a SYBR-Green PCR master mix (Applied biosystems) and the StepOnePlus™ Real Time PCR System (Applied Biosystems). Data were analyzed according to ΔΔCt method, and gene expression values were normalized to GAPDH expression.
(§4) Human aortic vascular smooth muscle cells (HASMCs; ScienCell Research Laboratories) and human pulmonary […] vascular smooth muscle cell (HPASMC, ScienCell Research laboratories) were cultured in smooth muscle growth medium (SMGM, ScienCell Research Laboratories) or basal medium. For a compound inhibitor experiment, HASMCs and HPASMCs were pre-treated with pifithrin (10 μM; Sigma), LY294002 (20 μM; Cell Signaling Technology), PD98059 (50 μM; Cell Signaling Technology), U0 126 (10 μM; Cell Signaling Technology), SB203580 (50 μM; Cell Signaling Technology), and BIRB796 (10 μM; Merck) at 37° C. for 24 hours.

For assay [4], the system named is FGF12 promoter. The assay is described as follows: Luciferase reporter assay with FGF12 promoter. It is filed as cell-based, human. The note with it: HASMCs, pGL3-FGF12 reporter, PDGF-BB 50 ng/ml versus removed. Here is the method: For the luciferase reporter assay, approximately 2000 base pairs of the FGF12 5′-UTR were cloned into a firefly luciferase reporter vector (pGL3-phFGF12). HASMCs were co-transfected with an empty vector (pGL3-basic) or pGL3-phFGF12, together with a constitutively active β-galactosidase reporter plasmid as a transfection control. After 48 hours, luciferase and galactosidase activities were analyzed using a luciferase and galactosidase assay kit (Stratagene). The luciferase activity was normalized to galactosidase activity, and expressed as a relative value compared with the luciferase activity measured in HASMCs transfected with pGL3-basic and cultured in a medium containing PDGF-BB (50 ng/ml) for 1 day.
(A reporter such as luciferase makes a cellular process visible.)

Assay [5] relates to human pulmonary aortic vascular smooth muscle cells (HPASMCs). Nature of the assay: FGF12 expression regulation by PDGF-BB in HPASMCs (RT-PCR, immunofluorescence). It is filed as cell-based.
Excerpt: as §1, §3, §4

Assay [6] relates to HPASMC. Nature of the assay: FGF12 expression regulation by BMP in HPASMC (RT-PCR, Western blotting). It is filed as cell-based, human. The note with it: for FGF12 protein expression / protein expression of vascular smooth muscle cell differentiation markers (α-SMA, SM22α): 30 ng/ml, 48 hours, western blotting; for level of FGF12 mRNA: 48 hours after addition to basal medium (10 and 30 ng/ml), RT-PCR. Here is the method: as §3
For transfection for FGF12 overexpression, an expression vector (pCMV6-Entry having the c-terminal labeled Myc-DDK) encoding a rat homologous gene (Origene) having 100% amino acid homology with human FGF12 cDNA was used. HASMCs and HPASMCs were transfected with pCMV6-FGF12(pFGF12) or pCMV6-Entry (pEntry) control vector using Lipofectamien™ 2000 according to the protocol of the manufacturer, and selected using G418 (Sigma) for 2 weeks. For the inhibition of FGF12, p53 or BMPR2 expression, subconfluent HASMCs were transfected with specific or non-specific small interfering RNA (siRNA; GE Healthcare) using Lipofectamien™ 2000.
Cell and tissue lysates were separated by SDS-PAGE, and protein bands were transferred on blots. Blots were reacted with appropriate primary antibodies such as FGF12 (Abcam), p-p53 (Cell Signaling Technology), p53 (BD Biosciences), α-SMA (Sigma), SM22α (Abcam), SM-MHC, or β-actin (Santa Cruz biotechnology), followed by treatment with horseradish peroxidase-conjugated secondary antibodies.
In general terms: Immunoblotting shows a protein as a band on a membrane.

Where [7] appears, read: 3 hours after PDGF-BB (50 ng/ml) added to basal medium, RT-PCR.
The mark [8] stands for this setting: after 24 hours of PDGF-BB stimulation.

From US11219664B2, “Composition for diagnosing, preventing, or treating vascular smooth muscle cell proliferative diseases using FGF12” (CHUNG-ANG UNIVERSITY INDUSTRY ACADEMIC COOPERATION …, priority 2015, dated 2022) come the findings set out here.

Take pifithrin: the “cell proliferation of Ad-FGF12-transfected cells” value in assay [1] and in assay [2] was “significantly improving the cell proliferation” each time.
Consider “PDGF-BB: platelet-derived growth factor subunit B homodimer, vascular smooth muscle cell mitogen”, for which the “mRNA level of FGF12” value is on record as “greatly decreased” in assay [3] (setting [7]), “further decreased” in assay [3] (setting [8]), “greatly decreased” in assay [5] (setting [7]) and “further decreased” in assay [5] (setting [8]). Further, the “expression level of FGF12 (immunofluorescent experiment)” value in assay [3] (PDGF-BB 50 ng/ml, one day) is listed as “decreased”; in assay [5] (PDGF-BB 50 ng/ml, one day), “decreased”. The “mRNA level of the contractible gene SM-HMC” value in assay [3] (setting [8]) and in assay [5] (setting [8]) was “decreased” in each case. Besides, the “mRNA level of the proliferation marker gene CDK1” value in assay [3] (setting [8]) is on record as “increased”. Besides, the “transcriptional activity of the FGF12 promoter” value in assay [4] is recorded as “inhibits the expression of FGF12 at a transcriptional level”.

B1: BMP-7: bone morphogenetic protein, promotes differentiation and inhibits proliferation of vascular smooth muscle cells (protein, UniProt P18075 293-431, looked up)
Bone morphogenetic protein 7: STGSKQRSQNRSKTPKNQEALRMANVAENSSSDQRQACKKHELYVSFRDLGWQDWIIAPEGYAAYYCEGECAFPLNSYMNATNHAIVQTLVHFINPETVPKPCCAPTQLNAISVLYFDDSSNVILKKYRNMVVRACGCH
B1: in assay [6], the FGF12 protein expression result is reported as “increased”; the “protein expression of vascular smooth muscle cell differentiation markers (α-SMA, SM22α)” value is “increased”; the “level of FGF12 mRNA” value is given as “significantly increased”.

B2: BMP-4: Bone morphogenic protein-4 (protein)
chain: SPKHHSQRARKKNKNCRRHSLYVDFSDVGWNDWIVAPPGYQAFYCHGDCPFPLADHLNSTNHAIVQTLVNSVNSSIPKACCVPTELSAISMLYLDEYDKVVLKNYQEMVVEGCGCR
For the molecule B2, in assay [6], the FGF12 protein expression entry is “increased”; the “protein expression of vascular smooth muscle cell differentiation markers (α-SMA, SM22α)” value is on record as “increased”; the “level of FGF12 mRNA” value is “significantly increased”.
